In ChEMBL document CHEMBL5137080, “Discovery of Novel 7-Hydroxy-5-oxo-4,5-dihydrothieno[3,2-b]pyridine-6-carboxamide Derivatives with Potent and Selective Antifungal Activity against Cryptococcus Species” (J Med Chem, 2022):
In brackets after ≈: the same amount, converted by molar mass.

Assays:
Candida albicans = test: Antifungal activity against Candida albicans SC5314 assessed as fungal growth inhibition incubated for 48 hrs by broth microdilution method; format: functional
Aspergillus fumigatus = test: Antifungal activity against Aspergillus fumigatus 7544 assessed as fungal growth inhibition incubated for 48 hrs by broth microdilution method; format: functional
Cryptococcus neoformans = test: Antifungal activity against Cryptococcus neoformans H99 assessed as fungal growth inhibition incubated for 72 hrs by broth microdilution method; format: functional
[1] = Cytotoxicity against human HUVEC cells assessed as inhibition on cell growth incubated for 24 hrs by CCK-8 assay; format: toxicity, cell-based
[2] = Cytotoxicity against human HUVEC cells assessed as cell viability at 64 ug/ml incubated for 24 hrs by CCK-8 assay; format: toxicity, cell-based; conditions: at 64 µg/mL, read-out: Activity
[3] = Cytotoxicity against human Caco-2 cells assessed as cell viability at 64 ug/ml incubated for 24 hrs by CCK-8 assay; format: toxicity, cell-based; conditions: at 64 µg/mL, read-out: Activity
[4] = Cytotoxicity against human HUVEC cells assessed as cell viability at 256 ug/ml incubated for 24 hrs by CCK-8 assay; format: toxicity, cell-based; conditions: at 256 µg/mL, read-out: Activity
[5] = Cytotoxicity against human Caco-2 cells assessed as cell viability at 256 ug/ml incubated for 24 hrs by CCK-8 assay; format: toxicity, cell-based; conditions: at 256 µg/mL, read-out: Activity
[6] = Hemolytic activity in rabbit RBC at 16 ug/ml incubated for 1 hr by spectrophotometry; format: toxicity, cell-based, Oryctolagus cuniculus, Erythrocyte; conditions: red blood cells, at 16 µg/mL, read-out: Activity
[7] = Hemolytic activity in rabbit RBC at 32 ug/ml incubated for 1 hr by spectrophotometry; format: toxicity, cell-based, Oryctolagus cuniculus, Erythrocyte; conditions: red blood cells, at 32 µg/mL, read-out: Activity
[8] = Hemolytic activity in rabbit RBC at 64 ug/ml incubated for 1 hr by spectrophotometry; format: toxicity, cell-based, Oryctolagus cuniculus, Erythrocyte; conditions: red blood cells, at 64 µg/mL, read-out: Activity

SMILES | MIC (Candida albicans) | MIC (Aspergillus fumigatus) | MIC (Cryptococcus neoformans) | IC50 at 24 h [1] | other results
CC(NC(=O)c1c(O)c2sccc2n(Cc2ccccc2)c1=O)c1ccccc1 (stereo not drawn) | > 64 µg/mL | > 64 µg/mL | 4 µg/mL (≈ 9.89 µM) |  | 
CC1CCN(CCNC(=O)c2c(O)c3sccc3n(Cc3ccccc3)c2=O)CC1 | 32 µg/mL (≈ 75.2 µM) | 32 µg/mL (≈ 75.2 µM) | 32 µg/mL (≈ 75.2 µM) |  | 
O=C(NCCc1c[nH]c2ccccc12)c1c(O)c2sccc2n(Cc2ccccc2)c1=O | > 64 µg/mL | > 64 µg/mL | 8 µg/mL (≈ 18 µM) |  | 
O=C(NN1CCCCC1)c1c(O)c2sccc2n(Cc2ccccc2)c1=O | > 64 µg/mL | > 64 µg/mL | 16 µg/mL (≈ 41.7 µM) | > 64 µg/mL | 
COc1cccc(CNC(=O)c2c(O)c3sccc3n(Cc3ccccc3)c2=O)c1 | > 64 µg/mL | > 64 µg/mL | 2 µg/mL (≈ 4.76 µM) |  | 
O=C(NCc1cc(F)cc(F)c1)c1c(O)c2sccc2n(Cc2ccccc2)c1=O | > 64 µg/mL | > 64 µg/mL | 2 µg/mL (≈ 4.69 µM) |  | 
O=C(NC1CCCCC1)c1c(O)c2sccc2n(Cc2ccccc2)c1=O | > 64 µg/mL | > 64 µg/mL | 8 µg/mL (≈ 20.9 µM) | > 64 µg/mL | 
O=C(NCC1CCCO1)c1c(O)c2sccc2n(Cc2ccccc2)c1=O (stereo not drawn) | 32 µg/mL (≈ 83.2 µM) | 16 µg/mL (≈ 41.6 µM) | 4 µg/mL (≈ 10.4 µM) |  | 
C=CCCNC(=O)c1c(O)c2sccc2n(Cc2ccccc2)c1=O | > 64 µg/mL | > 64 µg/mL | 0.25 µg/mL (≈ 0.705 µM) | > 64 µg/mL | 
O=C(NCc1ccc(F)cc1F)c1c(O)c2sccc2n(Cc2ccccc2)c1=O | > 64 µg/mL | > 64 µg/mL | 2 µg/mL (≈ 4.69 µM) |  | 
O=C(Nc1ccccc1)c1c(O)c2sccc2n(Cc2ccccc2)c1=O | > 64 µg/mL | > 64 µg/mL | > 64 µg/mL |  | 
O=C(NCCCCO)c1c(O)c2sccc2n(Cc2ccccc2)c1=O | > 64 µg/mL | 32 µg/mL (≈ 85.9 µM) | 2 µg/mL (≈ 5.37 µM) | 16 µg/mL (≈ 43 µM) | 
O=C(NCc1ccncc1)c1c(O)c2sccc2n(Cc2ccccc2)c1=O | 64 µg/mL (≈ 163 µM) | 8 µg/mL (≈ 20.4 µM) | 2 µg/mL (≈ 5.11 µM) |  | 
C#CCNC(=O)c1c(O)c2sccc2n(Cc2ccccc2)c1=O | > 64 µg/mL | > 64 µg/mL | 16 µg/mL (≈ 47.3 µM) | > 64 µg/mL | 
O=C(NCCc1ccccc1)c1c(O)c2sccc2n(Cc2ccccc2)c1=O | > 64 µg/mL | > 64 µg/mL | 4 µg/mL (≈ 9.89 µM) |  | 
O=C(NCc1ccc(F)cc1)c1c(O)c2sccc2n(Cc2ccccc2)c1=O | > 64 µg/mL | > 64 µg/mL | 4 µg/mL (≈ 9.79 µM) |  | 
O=C(NN1CCOCC1)c1c(O)c2sccc2n(Cc2ccccc2)c1=O | > 64 µg/mL | > 64 µg/mL | > 64 µg/mL | > 64 µg/mL | 
O=C(NCc1cccc(Cl)c1)c1c(O)c2sccc2n(Cc2ccccc2)c1=O | > 64 µg/mL | > 64 µg/mL | 2 µg/mL (≈ 4.71 µM) |  | 
Cc1ccccc1CNC(=O)c1c(O)c2sccc2n(Cc2ccccc2)c1=O | > 64 µg/mL | > 64 µg/mL | 2 µg/mL (≈ 4.94 µM) |  | 
O=C(NCCO)c1c(O)c2sccc2n(Cc2ccccc2)c1=O | > 64 µg/mL | 32 µg/mL (≈ 92.9 µM) | 8 µg/mL (≈ 23.2 µM) | 64 µg/mL (≈ 186 µM) | 
O=C(NCCCO)c1c(O)c2sccc2n(Cc2ccccc2)c1=O | > 64 µg/mL | 32 µg/mL (≈ 89.3 µM) | 4 µg/mL (≈ 11.2 µM) | 64 µg/mL (≈ 179 µM) | 
CCC(C)NC(=O)c1c(O)c2sccc2n(Cc2ccccc2)c1=O (stereo not drawn) | > 64 µg/mL | 64 µg/mL (≈ 180 µM) | 4 µg/mL (≈ 11.2 µM) |  | 
CCCCCCNC(=O)c1c(O)c2sccc2n(Cc2ccccc2)c1=O | > 64 µg/mL | > 64 µg/mL | 0.5 µg/mL (≈ 1.3 µM) | > 64 µg/mL | 

SMILES | MIC (Candida albicans) | MIC (Aspergillus fumigatus) | MIC (Cryptococcus neoformans) | IC50 at 24 h [1] | other results
O=C(NCc1ccc(Cl)cc1)c1c(O)c2sccc2n(Cc2ccccc2)c1=O | > 64 µg/mL | > 64 µg/mL | 1 µg/mL (≈ 2.35 µM) |  | 
CSc1ccc(CNC(=O)c2c(O)c3sccc3n(Cc3ccccc3)c2=O)cc1 | > 64 µg/mL | > 64 µg/mL | 2 µg/mL (≈ 4.58 µM) |  | 
CCOCCNC(=O)c1c(O)c2sccc2n(Cc2ccccc2)c1=O | > 64 µg/mL | 16 µg/mL (≈ 43 µM) | 0.5 µg/mL (≈ 1.34 µM) | 8 µg/mL (≈ 21.5 µM) | 
O=C(NC1CCCC1)c1c(O)c2sccc2n(Cc2ccccc2)c1=O | > 64 µg/mL | > 64 µg/mL | 4 µg/mL (≈ 10.9 µM) | > 64 µg/mL | 
C[C@@H]1[C@H](O)[C@@H](C)/C=C/C=C/C=C/C=C/C=C/C=C/C=C/[C@H](O[C@@H]2O[C@H](C)[C@@H](O)[C@H](N)[C@@H]2O)C[C@@H]2O[C@](O)(C[C@@H](O)C[C@@H](O)[C@H](O)CC[C@@H](O)C[C@@H](O)CC(=O)O[C@H]1C)C[C@H](O)[C@H]2C(=O)O [AMPHOTERICIN B] | 0.125 µg/mL (≈ 0.135 µM) | 2 µg/mL (≈ 2.16 µM) | 1 µg/mL (≈ 1.08 µM) | 16 µg/mL (≈ 17.3 µM) | viability at 24 h, 64 ug/ml [2]: 68.2%; viability at 24 h, 64 ug/ml [3]: 64.8%; viability at 24 h, 256 ug/ml [4]: 13.7%; viability at 24 h, 256 ug/ml [5]: 28.7%; hemolysis at 1 h, 16 ug/ml [6]: 8.06%; hemolysis at 1 h, 32 ug/ml [7]: > 95%; hemolysis at 1 h, 64 ug/ml [8]: 100%
COCCNC(=O)c1c(O)c2sccc2n(Cc2ccccc2)c1=O | > 64 µg/mL | 32 µg/mL (≈ 89.3 µM) | 2 µg/mL (≈ 5.58 µM) | 16 µg/mL (≈ 44.6 µM) | 
CC(C)CNC(=O)c1c(O)c2sccc2n(Cc2ccccc2)c1=O | > 64 µg/mL | > 64 µg/mL | 16 µg/mL (≈ 44.9 µM) |  | 
O=C(NCc1cccs1)c1c(O)c2sccc2n(Cc2ccccc2)c1=O | > 64 µg/mL | > 64 µg/mL | 2 µg/mL (≈ 5.04 µM) |  | 
COc1ccc(CNC(=O)c2c(O)c3sccc3n(Cc3ccccc3)c2=O)cc1 | > 64 µg/mL | > 64 µg/mL | 2 µg/mL (≈ 4.76 µM) |  | 
CC(C)NC(=O)c1c(O)c2sccc2n(Cc2ccccc2)c1=O | > 64 µg/mL | > 64 µg/mL | 2 µg/mL (≈ 5.84 µM) | > 64 µg/mL | 
O=C(NCCc1cccs1)c1c(O)c2sccc2n(Cc2ccccc2)c1=O | > 64 µg/mL | > 64 µg/mL | 2 µg/mL (≈ 4.87 µM) |  | 
CCCCCNC(=O)c1c(O)c2sccc2n(Cc2ccccc2)c1=O | > 64 µg/mL | > 64 µg/mL | 0.5 µg/mL (≈ 1.35 µM) | > 64 µg/mL | 
O=C(NCc1ccccn1)c1c(O)c2sccc2n(Cc2ccccc2)c1=O | > 64 µg/mL | 16 µg/mL (≈ 40.9 µM) | 2 µg/mL (≈ 5.11 µM) |  | 
Cc1ccc(CNC(=O)c2c(O)c3sccc3n(Cc3ccccc3)c2=O)cc1C | > 64 µg/mL | > 64 µg/mL | 2 µg/mL (≈ 4.78 µM) |  | 
O=C(NCc1ccccc1Cl)c1c(O)c2sccc2n(Cc2ccccc2)c1=O | > 64 µg/mL | > 64 µg/mL | 2 µg/mL (≈ 4.71 µM) |  | 
O=C(NCc1ccccc1F)c1c(O)c2sccc2n(Cc2ccccc2)c1=O | > 64 µg/mL | > 64 µg/mL | 2 µg/mL (≈ 4.9 µM) |  | 
CC(NC(=O)c1c(O)c2sccc2n(Cc2ccccc2)c1=O)c1ccc(F)cc1 (stereo not drawn) | > 64 µg/mL | > 64 µg/mL | 2 µg/mL (≈ 4.73 µM) |  | 
CCCNC(=O)c1c(O)c2sccc2n(Cc2ccccc2)c1=O | > 64 µg/mL | > 64 µg/mL | 2 µg/mL (≈ 5.84 µM) | > 64 µg/mL | 
Cc1ccc(CNC(=O)c2c(O)c3sccc3n(Cc3ccccc3)c2=O)o1 | > 64 µg/mL | > 64 µg/mL | 2 µg/mL (≈ 5.07 µM) |  | 
O=C(NCC1CC1)c1c(O)c2sccc2n(Cc2ccccc2)c1=O | > 64 µg/mL | > 64 µg/mL | 1 µg/mL (≈ 2.82 µM) |  | 
CN(C)c1ccc(CNC(=O)c2c(O)c3sccc3n(Cc3ccccc3)c2=O)cc1 | > 64 µg/mL | > 64 µg/mL | 4 µg/mL (≈ 9.23 µM) |  | 
O=C(NCCN1CCOCC1)c1c(O)c2sccc2n(Cc2ccccc2)c1=O | 32 µg/mL (≈ 77.4 µM) | 64 µg/mL (≈ 155 µM) | 8 µg/mL (≈ 19.3 µM) |  | 
